From paper PMC4839570, “Novel Anthra[1,2-c][1,2,5]Thiadiazole-6,11-Diones as Promising Anticancer Lead Compounds: Biological Evaluation, Characterization & Molecular Targets Determination” (PLoS ONE, 2016)
Read-outs that look alike come from different tables or passages of the source.

Experiments:
[1] = tested on: HL-60(TB); test: NCI-60 cytotoxicity screen; assay type: cell-based
[2] = tested on: COLO 205; test: NCI-60 cytotoxicity screen; assay type: cell-based
[3] = tested on: SW-620; test: NCI-60 cytotoxicity screen; assay type: cell-based
[4] = tested on: SF-268; test: NCI-60 cytotoxicity screen; assay type: cell-based
[5] = tested on: LOX IMVI; test: NCI-60 cytotoxicity screen; assay type: cell-based
[6] = tested on: MALME-3M; test: NCI-60 cytotoxicity screen; assay type: cell-based
[7] = tested on: SK-MEL-2; test: NCI-60 cytotoxicity screen; assay type: cell-based
[8] = tested on: UACC-257; test: NCI-60 cytotoxicity screen; assay type: cell-based
[9] = tested on: OVCAR-8; test: NCI-60 cytotoxicity screen; assay type: cell-based
[10] = tested on: SK-OV-3; test: NCI-60 cytotoxicity screen; assay type: cell-based
[11] = tested on: A498; test: NCI-60 cytotoxicity screen; assay type: cell-based
[12] = tested on: BT-549; test: NCI-60 cytotoxicity screen; assay type: cell-based
[13] = tested on: BSY-1; test: JFCR-39 cytotoxicity screen; assay type: cell-based
[14] = tested on: MDA-MB-231; test: JFCR-39 cytotoxicity screen; assay type: cell-based
[15] = tested on: SNB-75; test: JFCR-39 cytotoxicity screen; assay type: cell-based
[16] = tested on: HT-29; test: JFCR-39 cytotoxicity screen; assay type: cell-based
[17] = tested on: NCI-H522; test: JFCR-39 cytotoxicity screen; assay type: cell-based
[18] = tested on: LOX-IMVI; test: JFCR-39 cytotoxicity screen; assay type: cell-based
[19] = tested on: SK-OV-3; test: JFCR-39 cytotoxicity screen; assay type: cell-based
[20] = tested on: ST-4; test: JFCR-39 cytotoxicity screen; assay type: cell-based
[21] = tested on: MKN28; test: JFCR-39 cytotoxicity screen; assay type: cell-based
[22] = tested on: JFCR 39 human cancer cell lines; test: JFCR-39 screen, means, ranges and selectivity over panels; assay type: cell-based; settings: for GI50: Homo sapiens
Description: Both NSC745885 and NSC757963 satisfied the pre-determined threshold inhibition criteria of the NCI-60 One-Dose Screening, so they were tested against the panels of 60 cancer cell lines of NCI (NCI-60) and 39 cancer cell lines of JFCR (JFCR-39), each cell line was tested at five small doses of our compounds. Results are expressed as the 50% growth inhibition concentration (GI50), the 50% lethal concentration (LC50) and the total growth inhibition (TGI), compared to the values of untreated control cells.
To characterize the selectivity of NSC745885 and NSC757963 further among the different types of cancer, we determined their selectivity ratios towards each cell line subpanel used in the cytotoxicity experiments. […] The promising activity of this compound is evident from the small mean GI50 values. […] The strongest activity was towards the leukemia subpanel and the least one was towards the colon cancer subpanel. […] The strongest activity was towards the melanoma subpanel and the least one was towards the colon cancer subpanel.
All cell lines were published before.

[23] = tested on: MDA-MB-468; test: NCI-60 cytotoxicity screen; settings: Homo sapiens, MDA-MB-468, read-out: mean log10 of the GI50 values (converted)
[24] = Homo sapiens, Fig 7, read-out: mean log10 of the GI50 values (converted)
[25] = Homo sapiens, five-dose, read-out: GI50
[26] = Homo sapiens, five-dose, read-out: LC50 (the source's name)
[27] = Homo sapiens, read-out: LC50 (the source's name)

## O=C1c2ccccc2C(=O)c2c1ccc1nsnc21 [NSC745885, anthra[1,2-c][1,2,5]thiadiazole-6,11-dione]
[1]; [24]
  GI50: 0.589 µM
[1]; [25]
  GI50: 0.16 µM
[1]; [26]
  CC50: 0.99 µM
[1]; five-dose
  TGI: 0.39 µM
[2]; Homo sapiens, COLO205, Fig 7, read-out: mean log10 of the GI50 values (converted)
  GI50: 5.13 µM
[2]; [25]
  GI50: 13.4 µM
[2]; [26]
  CC50: 62.4 µM
[2]; five-dose
  TGI: 28.9 µM
[3]; [24]
  GI50: 3.89 µM
[3]; [25]
  GI50: 1.79 µM
[3]; [26]
  CC50: 6.84 µM
[3]; five-dose
  TGI: 3.50 µM
[4]; [24]
  GI50: 2.75 µM
[4]; [25]
  GI50: 2.17 µM
[4]; [26]
  CC50: 27.7 µM
[4]; five-dose
  TGI: 5.77 µM
[5]; Homo sapiens, LOXIMVI, Fig 7, read-out: mean log10 of the GI50 values (converted)
  GI50: 0.912 µM
[5]; [25]
  GI50: 0.82 µM
[5]; [26]
  CC50: 4.86 µM
[5]; five-dose
  TGI: 2.13 µM
[6]; [24]
  GI50: 2 µM
[6]; [25]
  GI50: 1.66 µM
[6]; [26]
  CC50: 5.96 µM
[6]; five-dose
  TGI: 3.15 µM
[7]; [24]
  GI50: 2 µM
[7]; [25]
  GI50: 1.68 µM
[7]; [26]
  CC50: 22.5 µM
[7]; five-dose
  TGI: 4.22 µM
[8]; [24]
  GI50: 1.62 µM
[8]; [25]
  GI50: 1.74 µM
[8]; [26]
  CC50: 7.09 µM
[8]; five-dose
  TGI: 3.51 µM
[9]; [24]
  GI50: 1.2 µM
[9]; [25]
  GI50: 1.66 µM
[9]; [26]
  CC50: 59.8 µM
[9]; five-dose
  TGI: 4.68 µM
[10]; [24]
  GI50: 4.17 µM
[10]; [25]
  GI50: 7.71 µM
[10]; [26]
  CC50: 53.4 µM
[10]; five-dose
  TGI: 22.5 µM
[11]; [24]
  GI50: 35.5 µM
[11]; [25]
  GI50: 12.4 µM
[11]; [26]
  CC50: 52 µM
[11]; five-dose
  TGI: 25.4 µM
[12]; [24]
  GI50: 4.57 µM
[12]; [25]
  GI50: 1.63 µM
[12]; [26]
  CC50: 6.01 µM
[12]; five-dose
  TGI: 3.13 µM
[13]
  TGI: 2.8 µM
[13]; Homo sapiens
  GI50: 1.4 µM
[13]; [27]
  CC50: 5.6 µM
[14]
  TGI: 5.5 µM
[14]; Homo sapiens
  GI50: 1.4 µM
[14]; [27]
  CC50: 63 µM
[15]
  TGI: 3.9 µM
[15]; Homo sapiens
  GI50: 2.2 µM
[15]; [27]
  CC50: 7 µM
[16]
  TGI: 39.0 µM
[16]; Homo sapiens
  GI50: 19 µM
[16]; [27]
  CC50: 81 µM
[17]
  TGI: 3.0 µM
[17]; Homo sapiens
  GI50: 1.3 µM
[17]; [27]
  CC50: 6.7 µM
[18]
  TGI: 4.2 µM
[18]; Homo sapiens
  GI50: 0.86 µM
[18]; [27]
  CC50: > 100 µM
[19]
  TGI: 8.3 µM
[19]; Homo sapiens
  GI50: 2.7 µM
[19]; [27]
  CC50: 29 µM
[20]
  TGI: 4.0 µM
[20]; Homo sapiens
  GI50: 2 µM
[20]; [27]
  CC50: 8 µM
[21]
  TGI: 4.4 µM
[21]; Homo sapiens, MKN-28
  GI50: 1.8 µM
[21]; Homo sapiens, MKN-28, read-out: LC50 (the source's name)
  CC50: 13 µM
[22]
  selectivity ratios of the JFCR subpanels (for NSC745885 except melanoma): less than 3
[22]; JFCR Breast Cancer, read-out: Mean GI50 of subpanel
  GI50: 1.66 µM
[22]; JFCR CNS Cancer, read-out: Mean GI50 of subpanel
  GI50: 1.87 µM
[22]; JFCR Colon Cancer, read-out: Mean GI50 of subpanel
  GI50: 5.36 µM
[22]; JFCR Lung Cancer, read-out: Mean GI50 of subpanel
  GI50: 4.13 µM
[22]; JFCR Melanoma, read-out: Mean GI50 of subpanel
  GI50: 0.86 µM
[22]; JFCR Ovarian Cancer, read-out: Mean GI50 of subpanel
  GI50: 1.63 µM
[22]; JFCR Prostate Cancer, read-out: Mean GI50 of subpanel
  GI50: 1.65 µM
[22]; JFCR Renal Cancer, read-out: Mean GI50 of subpanel
  GI50: 2.1 µM
[22]; JFCR Stomach Cancer, read-out: Mean GI50 of subpanel
  GI50: 1.71 µM
[22]; all JFCR subpanels, read-out: mean GI50 values of the JFCR subpanels, range
  GI50: 0.86 to 5.36 µM
[22]; equivalent to MG-MID, read-out: Mean GI50 of all JFCR-39 cell line panels
  GI50: 2.62 µM
[22]; five-dose, read-out: JFCR-39 GI50 values, range over cell lines
  GI50: 0.47 to 19 µM
[22]; JFCR Breast Cancer
  Selectivity ratio: 1.58
[22]; JFCR CNS Cancer
  Selectivity ratio: 1.4
[22]; JFCR Colon Cancer
  Selectivity ratio: 0.49
[22]; JFCR Lung Cancer
  Selectivity ratio: 0.63
[22]; JFCR Melanoma
  Selectivity ratio: 3.04
[22]; JFCR Ovarian Cancer
  Selectivity ratio: 1.6
[22]; JFCR Prostate Cancer
  Selectivity ratio: 1.59
[22]; JFCR Renal Cancer
  Selectivity ratio: 1.25
[22]; JFCR Stomach Cancer
  Selectivity ratio: 1.53
[23]
  GI50: 1.82 µM
